Legend:
Experiment in all cases: relative viability (nuclei count vs DMSO), 5 days (fraction); higher = more cells survive
[1] = compound: Cc1ccc2nc(NCCN)c3ncc(C)n3c2c1 + CC1(C)CCC(c2ccc(Cl)cc2)=C(CN2CCN(c3ccc(C(=O)NS(=O)(=O)c4ccc(N[C@H](CCN5CCOCC5)CSc5ccccc5)c(S(=O)(=O)C(F)(F)F)c4)cc3)CC2)C1 [Navitoclax] (partner 0.5 µM)
In short: (§1)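 Lung cancer cell lines in 1536-well plates got either a single drug or a fixed anchor-drug dose together with five library-drug doses (not always all listed) in √10 steps, by pin tool, on the day after seeding. Nuclei were counted after 5 days, and relative viability is the treated-to-vehicle ratio of nuclei counts. Values are medians of duplicate plates.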

[2] = compound: Cc1ccc2nc(NCCN)c3ncc(C)n3c2c1 + COc1cc2c(Oc3ccc(NC(=O)C4(C(=O)Nc5ccc(F)cc5)CC4)cc3F)ccnc2cc1OCCCN1CCOCC1 [Foretinib] (partner 0.25 µM)
In short: as §1

Salubrinal = compound: O=C(/C=C/c1ccccc1)NC(NC(=S)Nc1cccc2cccnc12)C(Cl)(Cl)Cl [Salubrinal]
In short: (§2)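 Five library-drug doses spaced by √10 were pinned onto vehicle-anchored 1536-well plates of lung cancer cell lines that had been kept overnight at 37 °C. Cells went 5 days without medium change, then were fixed, permeabilised and Hoechst-stained together, imaged at 4× and counted by MetaXpress. Viability is the ratio of treated-well to vehicle-well nuclei, taken as a median over plates. Plates required control CV below 25% and at least one doubling.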

[3] = compound: Cc1ccc2nc(NCCN)c3ncc(C)n3c2c1
In short: as §2

Cell Line	relative viability ([1]; first compound 0.04 µM)	relative viability ([1]; first compound 0.1265 µM)	relative viability ([1]; first compound 0.4 µM)	relative viability ([1]; first compound 1.265 µM)	relative viability ([1]; first compound 4 µM)	relative viability ([2]; first compound 0.04 µM)	relative viability ([2]; first compound 0.1265 µM)	relative viability ([2]; first compound 0.4 µM)	relative viability ([2]; first compound 1.265 µM)	relative viability ([2]; first compound 4 µM)	relative viability (Salubrinal; 0.08 µM)	relative viability (Salubrinal; 0.253 µM)	relative viability (Salubrinal; 0.8 µM)	relative viability (Salubrinal; 2.53 µM)	relative viability (Salubrinal; 8 µM)	relative viability ([3]; 0.04 µM)	relative viability ([3]; 0.1265 µM)	relative viability ([3]; 0.4 µM)	relative viability ([3]; 1.265 µM)	relative viability ([3]; 4 µM)
NCI-H441	0.56	0.684	1.03	0.401	0.635	1.1	1.28	0.982	0.926	0.918	1.25	1.02	1.34	1.03	0.784	1.1	1.05	1.09	1.11	0.964
LOU-NH91	0.684	0.687	0.724	0.672	0.65	0.914	0.929	0.889	0.93	0.844	0.985	0.976	1.04	0.983	0.937	1.01	0.961	0.949	0.979	0.901
NCI-H3122	1.03	1.03	1.06	1	1.1	0.928	0.981	0.924	1.07	0.875	1.08	1	1.09	1.05	1.01	0.998	0.988	0.999	1.06	1.01
NCI-H460	1.27	1.08	1.1	1.22	1.06	0.982	0.901	0.955	0.928	0.965	1.16	0.946	1.11	0.983	0.918	0.99	0.971	0.99	0.999	0.943
NCI-H1734	0.818	0.803	0.8	0.808	0.803	0.911	0.903	0.78	0.95	0.801	1.02	0.882	1.14	1.01	0.909	0.979	0.99	0.886	0.9	0.979
LXF-289	0.946	0.909	0.936	0.922	0.952	0.95	1	0.955	0.992	0.958	1.04	0.945	1.01	0.995	0.975	0.985	0.966	1.01	1.01	1.02
H3255	0.666	0.479	0.638	0.535	0.469	1.11	0.961	0.744	0.98	0.764	1.07	0.965	1.11	0.958	0.949	1.02	0.9	0.886	1.06	0.843
201T	1.25	1.22	1.14	1.17	1.23	1.07	1.13	1.1	1.1	1.05	1.03	0.869	1.12	1.02	0.983	1.03	0.993	0.978	1.04	0.948
NCI-H2126	0.881	0.886	0.815	0.746	0.792	1.41	1.07	1.18	1.2	1.14	1.07	0.921	1.08	1.05	0.985	1.1	0.993	0.958	0.995	0.893
HOP-62	0.956	1.05	0.859	1	0.954	1.05	1.07	1.1	1.13	1.02	1.01	0.981	1.11	1.06	0.98	0.97	1	0.827	1.04	0.984
CAL-12T	1.26	1.14	1.25	1.33	1.17	1.14	0.967	1.13	1.14	0.97	1.09	0.956	1.08	1.03	0.888	0.984	0.981	0.976	1.02	0.91
NCI-H520	1.19	1.09	1.12	1.1	0.953	0.878	0.949	0.647	0.892	0.661	1.05	1.01	1.07	1.03	1.14	1.13	0.912	0.933	0.915	0.845
NCI-H1755	1.04	0.971	0.997	1.02	0.98	0.936	0.84	0.919	0.928	0.876	1.07	1.04	1.06	0.959	0.968	1.07	0.979	0.964	0.992	0.962
NCI-H2023	1.05	0.999	1.03	1.03	0.954	0.932	0.522	1.01	0.803	0.708	1.15	0.996	1.06	0.955	0.781	1.06	0.935	1.09	1.08	0.843
NCI-H2009	1.19	1.08	1.17	1.17	1.09	1.22	1.23	1.24	1.23	1.04	1.03	1.03	1.02	0.993	0.906	1.04	0.982	1.03	1.02	0.947
